The values below come from patent US12595231B2 (priority 2022, dated 2026).

In brackets after ≈: the same amount, converted by molar mass. Like-named read-outs stand apart in the source and are kept apart here.

A short description of series [1]: primary salt formation assessment: solution degradation (HPLC of mother liquor). In kind it is physicochemical. The conditions noted are these: salt formation experiment. On the procedure: HPLC analysis was carried out to determine the chemical purity of the mesembrine and to provide information on any impurities. The following conditions were use: • Column: Waters Acquity BEH 018 1.7 μm 150 mm×2.1 mm • Column Temperature: 33° C. • Autosampler Temperature: 25° C. • UV Wavelength: 280 nm • Injection Volume: 5 μL • Flow Rate: 0.29 mL/min • Mobile Phase A: 0.1% NH4 in H2O • Mobile Phase B: Methanol:Water 20:80% v/v • Gradient Program: […]
The experiments were then temperature cycled between the upper temperature limit (specified in Table 3.1) and 5° C. at 0.1° C./min, with 1 h holds at the upper temperature limit, and 5° C. for ca. 72 h.
After temperature cycling, solids were isolated from experiments at 5° C., and analysed by XRPD.

The nature of series [2]: primary salt formation assessment: storage at 40° C./75% RH for ca. 24 h, XRPD. The format is physicochemical. The conditions noted are these: solids stored at 40° C./75% RH for ca. 24 h. On the procedure:
Solids were dried at 40° C. under vacuum for ca. 24 h, and then re-analysed by XRPD.
Solids were then stored at 40° C./75% RH for ca. 24 h, and then re-analysed by XRPD.

Series [3] is classed as physicochemical. On the procedure:
Approximately 20 mg of each salt was weighed into 3×2 mL push cap vials. 0.1 mL of buffer (Chloride pH 1.2; Acetate pH 4.5; Phosphate pH 6.8) was added to each vial, at 25° C. The experiment was stirred for ca. 24 h. After 2 h, the pH was measured and adjusted if required. After 24 h a final pH measurement was taken. Any slurries were centrifuged and the solids analysed by XRPD.

For series [4] the following is noted: male C57Bl/6J mice, 10 mg/kg i.p.
A short description of series [5]: blood:plasma and blood:brain ratios in satellite animals. The following applies: satellite mice, 10 mg/kg i.p., t=0.25 h. In kind it is in vivo, male C57Bl/6J mice. On the procedure: Groups of 18 male C57Bl/6J mice (weighing between 20 and 30 g) received a single administration of test compound (10 mg/kg; i.p.) in methylcellulose (0.5% w/v) at a nominal concentration of […].

A short description of series [6]: solubility screen of amorphous besylate salt. The format is physicochemical. On the procedure:
The amorphous besylate salt prepared in Example 8 was used in a solubility screen as follows:
Known volume aliquots of solvent system were added to each vial, with heating at 40° C. between each addition for ca. 5 minutes. Addition of solvents was continued until either dissolution was observed, or until 100 volumes (ca. 1 mL) had been added.
After the solvent addition was complete, the experiments were stirred at 40° C. for ca. 16 h. […] The solids were isolated by centrifuge filtration and were analysed by XRPD.
Any solids isolated were analysed by XRPD.

A further series is described as follows: 1-week stability study. The format is physicochemical. The following applies: for Observation: Sigma Aldrich colour chart. On the procedure: A 1-week stability study was performed for hydrochloride salt Pattern 1, besylate salt Pattern 1, fumarate salt Pattern 1+4, and fumarate salt Pattern 4.
Approximately 5 mg of the salt was weighed into 3×2 mL push cap vials. The 2 mL vials were then each placed inside a 20 mL vial, with the lids on or off as required. The solids were placed under the required stability conditions for 1 week at the following three conditions: 40° C./75% RH (open); 80° C. (closed); Ambient light, temperature and humidity (open)
After 1-week, visual observations were noted, then the solids were analysed by XRPD and HPLC.

A short description of series [7]: DVS analysis (water uptake). The format is physicochemical. The following applies: 80% RH, 25° C.; listed as fumarate salt Pattern 4.
For series [8] the following is noted: cited from earlier work.
The nature of series [9]: solvent miscibility/solubility of mesembrine (Example 2). In kind it is physicochemical. On the procedure:
After dissolution 278 μL of the solution was aliquoted into pre-tared vials, and the solvent allowed to evaporate at ambient conditions for 1 h. The vials were then dried at 20° C. under vacuum for ca. 22 h. After drying, the vials were back-weighed to determine the mass of mesembrine in each vial.
The miscibility study was carried out by adding aliquots of the desired solvent system to each vial. The following aliquot sizes were used: Aliquot numbers 1-10-20 μL; 11-16-50 μL; 17-19-200 μL; 20-750 μL.
In between additions the experiment was heated to 40° C. for ca. 5 minutes to facilitate miscibility/solubility. Additions were continued until miscibility was observed, or ca. 100 volumes (2 mL) had been added.

Where [10] appears, read: Ambient light, temperature and humidity, 1 week.

As to `COc1ccc(C23CCC(=O)CC2N(C)CC3)cc1OC.O=P(O)(O)O` (stereo not shown) [Phosphate Pattern 1, mesembrine phosphate], the “solution degradation (Comments)” value in series [1] is given as “degradation”.

For the compound `COc1ccc(C23CCC(=O)CC2N(C)CC3)cc1OC.O=C(O)/C=C/C(=O)O` (stereo not shown) [Fumarate Pattern 1, mesembrine fumarate], in [2], the “physical stability at 40° C./75% RH (Comments)” value was “Physically stable”. Also, the “HPLC Conc.” value in [3] (Target pH 1.2 (chloride buffer), 25° C., 24 h, with respect to mesembrine) was 29.44 mg/mL. For the same compound, in series [3] (Target pH 6.8, ca. 20 mg in 0.1 mL buffer), the Observation entry is “Oiling”.

As to `COc1ccc(C23CCC(=O)CC2N(C)CC3)cc1OC.O=C(O)C(O)C(O)C(=O)O` (stereo not shown) [Tartrate Pattern 1, mesembrine tartrate], the “physical stability at 40° C./75% RH (Comments)” value in [2] is recorded as “Deliquescence”. The “solution degradation (Comments)” value in series [1] is given as “degradation”.

`COc1ccc(C23CCC(=O)CC2N(C)CC3)cc1OC.O=C(O)/C=C/C(=O)O` (stereo not shown) [Fumarate Pattern 2, mesembrine fumarate]: the “solution degradation (Comments)” value in [1] is “degradation”.

Turning to `COc1ccc(C23CCC(=O)CC2N(C)CC3)cc1OC.O=S(=O)(O)c1ccccc1` (stereo not shown) [amorphous besylate salt, mesembrine besylate], the “AUC greater than that produced by the mesembrine free base” value in [4] is “over 100 ng·hr/mL”. In addition, the “difference in half-life versus the free base” value in series [4] is roughly 10 min. In addition, the AUC0-inf in [4] (plasma) turned out to be 392 ng·h/mL. Further, the maximum concentration (Cmax) (in general, the peak of the concentration-time curve) in series [4] (plasma) was 451 ng/mL. Besides, in series [4] (plasma), the Tmax (commonly the time from dosing to the highest level) was found to be 15 min. Further, the half-life (commonly the time in which the quantity being followed falls by half) in series [4] (plasma) was found to be 36.9 min. The Brain concentration in series [5] was determined as 814 ng/g. Also, the Plasma concentration in series [5] is 417 ng/mL. For the same compound, the Solubility – broadly, the dissolved amount per volume that the medium holds – in series [6] (1,4-Dioxane) is less than 10000 µg/mL; in series [6] (1-Butanol), less than 10000 µg/mL; in series [6] (1-Propanol) it was “ca.31 mg/mL”; in [6] (2-Ethoxyethanol), “ca.44 mg/mL”; in [6] (2-Methyl THF), less than 10000 µg/mL; in series [6] (2-Propanol) it was less than 10000 µg/mL. Further, the Solubility in [6] (2-Propanol:Water (50:50)) was greater than 500000 µg/mL; in series [6] (2-Propanol:Water (75:25)), “ca.167 mg/mL”; in [6] (Acetone), less than 10000 µg/mL; in [6] (Acetone:Water (90:10)) it was greater than 500000 µg/mL; in series [6] (Acetonitrile) it was greater than 500000 µg/mL; in series [6] (Anisole), less than 10000 µg/mL. The Solubility in series [6] (Butyl Acetate) was less than 10000 µg/mL; in [6] (Dichloromethane (DCM)) it was “ca.250 mg/mL”; in series [6] (Diisopropyl ether) it was less than 10000 µg/mL; in series [6] (Dimethylsulfoxide (DMSO)) it was greater than 500000 µg/mL; in series [6] (Ethanol) it was “ca.44 mg/mL”; in series [6] (Ethanol:Water (50:50)), greater than 500000 µg/mL. Also, the Solubility in series [6] (Ethanol:Water (90:10)) is greater than 500000 µg/mL; in series [6] (Ethyl acetate) it was less than 10000 µg/mL; in [6] (Heptane) it was less than 10000 µg/mL; in series [6] (Isopropyl acetate), less than 10000 µg/mL; in series [6] (Methanol), greater than 500000 µg/mL; in series [6] (Methylethyl Ketone (MEK)) it was less than 10000 µg/mL. Moreover, the Solubility in series [6] (Methylisobutyl Ketone (MiBK)) is less than 10000 µg/mL; in series [6] (N,N-Dimethylacetamide (DMA)) it was greater than 500000 µg/mL; in [6] (N,N-Dimethylformamide (DMF)), “ca.250 mg/mL”; in series [6] (N-Methylpyrrolidone (NMP)), greater than 500000 µg/mL; in series [6] (Tetrahydrofuran (THF)) it was less than 10000 µg/mL; in series [6] (Toluene), less than 10000 µg/mL. In addition, the Solubility in series [6] (Water) was greater than 500000 µg/mL; in series [6] (tert-Butylmethyl Ether (tBME)), less than 10000 µg/mL.

Consider `COc1ccc(C23CCC(=O)CC2N(C)CC3)cc1OC.O=C(O)C=CC(=O)O` (stereo not shown) [Fumarate Pattern 4, mesembrine fumarate], for which the HPLC in “1-week stability study” (40° C./75% RH (open), 1 week) was found to be 96.4 % area; in the series “1-week stability study” (80° C. (closed), 1 week), 96.4 % area; in “1-week stability study” (setting [10]) it was 96.4 % area; in “1-week stability study” (Input), 95.9 % area. The “XRPD (pattern number)” value in the series “1-week stability study” (40° C./75% RH (open), 1 week) is reported as 4,; in the series “1-week stability study” (80° C. (closed), 1 week), 4,; in the series “1-week stability study” (setting [10]) it was 4,; in “1-week stability study” (Input), 4,. Moreover, the Observation entry was “Faint beige solids (BE10)” in the series “1-week stability study” (40° C./75% RH (open), 1 week); “Faint beige solids (BE10)” in “1-week stability study” (80° C. (closed), 1 week); “Faint beige solids (BE10)” in the series “1-week stability study” (setting [10]). In addition, the DVS water uptake in series [7] was 0.5 wt %.

Consider `COc1ccc(C23CCC(=O)CC2N(C)CC3)cc1OC.O=C(O)CCC(=O)O` (stereo not shown) [Succinate Pattern 1, mesembrine succinate], for which the “solution degradation (Comments)” value in [1] is recorded as “degradation”.

For the compound `COc1ccc(C23CCC(=O)CC2N(C)CC3)cc1OC` (stereo not shown) [mesembrine, 3a-(3,4-dimethoxyphenyl)-octahydro-1-methy-6H-indol-6-one], in series [4] (plasma), the AUC0-inf came out at 290 ng·h/mL. The same compound displayed a peak concentration (Cmax) in [4] (plasma) of 400 ng/mL. Besides, the Tmax in [4] (plasma) is 15 min. In series [4] (plasma), the half-life was 27.2 min. Moreover, in series [4] (plasma), the t1/2 amounted to 27.2 min. Besides, the Brain concentration in [5] is 1292 ng/g. Further, in [5], the Plasma concentration is 317 ng/mL. Moreover, the Solubility in series [8] (Ethanol) is 10000 µg/mL (≈ 34.6 mM); in [8] (Water) it was “low solubility”; in series [8] (chloroform), 10000 µg/mL (≈ 34.6 mM). Also, the Miscibility in [9] (1,4-Dioxane) is given as greater than 850 mg/mL; in [9] (2-Methyl THF), greater than 845 mg/mL; in [9] (2-Propanol (IPA)), greater than 870 mg/mL; in series [9] (2-Propanol:Water (50:50)), greater than 870 mg/mL; in [9] (Acetone), greater than 890 mg/mL; in series [9] (Acetonitrile), greater than 855 mg/mL. Further, the Miscibility in [9] (DMSO) is greater than 288 mg/mL; in series [9] (Ethanol) it was greater than 630 mg/mL; in series [9] (Ethyl acetate) it was greater than 445 mg/mL; in [9] (Heptane), less than 9 mg/mL; in series [9] (Isopropyl acetate), greater than 900 mg/mL; in [9] (Methanol) it was greater than 455 mg/mL. Also, the Miscibility in series [9] (Methylethyl Ketone (MEK)) is given as greater than 915 mg/mL; in series [9] (N-Methyl-2-pyrrolidone (NMP)), greater than 450 mg/mL; in [9] (Tert-butyl methyl ether), greater than 465 mg/mL; in series [9] (Tetrahydrofuran (THF)), greater than 381 mg/mL; in [9] (Toluene) it was greater than 455 mg/mL; in [9] (Water) it was less than 9 mg/mL.
